The results in this text go back to patent EP1200395B1, “UREA DERIVATIVES AS INHIBITORS OF CCR-3 RECEPTOR” (KIRIN BEER KABUSHIKI KAISHA, priority 1999, dated 2001).

SMILES strings stand for the structures.

In the assay the target is T1, CCR-3 (Homo sapiens, UniProt P51677).
T1 sequence (P51677 1-355): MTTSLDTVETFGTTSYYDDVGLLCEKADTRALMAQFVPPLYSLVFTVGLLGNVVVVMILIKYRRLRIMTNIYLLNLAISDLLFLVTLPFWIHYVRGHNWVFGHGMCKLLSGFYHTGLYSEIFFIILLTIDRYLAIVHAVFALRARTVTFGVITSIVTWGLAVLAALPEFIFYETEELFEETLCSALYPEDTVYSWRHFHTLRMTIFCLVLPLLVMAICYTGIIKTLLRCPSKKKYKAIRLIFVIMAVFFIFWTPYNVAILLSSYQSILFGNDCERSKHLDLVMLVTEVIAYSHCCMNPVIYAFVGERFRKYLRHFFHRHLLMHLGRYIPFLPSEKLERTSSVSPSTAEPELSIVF
The assay is described as follows: Eotaxin-induced chemotaxis of CCR-3 transfectant cells (CCR3/U937). Further details: expressed in transfected cells; host or cells: U937. To be noted: eotaxin 1 x 10^-9 M; for inhibition at 10 µM: U-937; for inhibition at 10 µM / Chemotaxis Assay 10 µM (inhibition %): 10 µM test compound; for Chemotaxis Assay 0.1 µg/ml (inhibition %): test compound 0.1 µg/ml, CCR3/U937 transfectants, 37 °C, 1 hour. Format: cell-based. How it is done:
The inhibitory activity of the compounds against eotaxin-induced chemotaxis was determined by measuring the inhibition of migration of CCR-3 transfectant cells (CCR3/U937), using a minor modification of the method described by Ohashi, H. et al., Int Arch Allergy Immunol. […] The chemotaxis assay was performed in a 24-well culture plate. Human eotaxin suspended in assay medium was added to the wells at 1 x 10^-9 M along with test compounds at various concentrations. For a positive control, eotaxin was added to the wells without a test compound, and for a negative control, neither eotaxin nor a test compound was added to the wells. Chemotaxicell (Kurabo Co., Ltd.) having 5 micrometers pore size were inserted into each well and 100 micro liters of CCR-3 transfectant cells suspension were added to the top chamber. The plates were incubated at 37 °C for 1 hour. After incubation, migrated cells in lower wells were diluted and counted by particle size distribution analyzer (CDP-500, Sysmex Co., Ltd.).

`NC(=O)CCCN(CCCNC(=O)Nc1ccc(Br)cc1)C1CCCc2ccccc21` (centres unmarked) [Compound 193, 4-[[3-(4-Bromophenylureido)propyl](1,2,3,4-tetrahydro-1-naphthyl)amino]butanamide] yielded an inhibition at 10 µM (CCR3/U937 cells (Table 3a)) of 100%. On to `CC[N+](CCCNC(=O)Nc1ccc(Cl)c(Cl)c1)(CCOCCOC)CCc1cccc(F)c1.[I-]` (centres unmarked) [compound 360], for which the “Chemotaxis Assay 0.1 µg/ml (inhibition %)” value is 70%. In the case of `CC[N+](CCCNC(=O)Nc1ccc(Br)cc1)(CCOCCOC)CCc1cccc(Cl)c1.[I-]` (centres unmarked) [compound 373], the “Chemotaxis Assay 0.1 µg/ml (inhibition %)” value was 100%. Turning to `CC[N+](CCCNC(=O)Nc1ccccc1)(CCc1ccc(Cl)cc1)Cc1ccccc1` (centres unmarked) [Compound 302, [3-(Phenylureido)propyl][2-(4-chlorophenyl)ethyl](benzyl)ethylammonium iodide], the inhibition at 10 µM (CCR3/U937 cells (Table 3c)) was 100%. Consider `CC[N+](CCCNC(=O)Nc1ccc(Br)cc1)(CCOCCOC)CCc1ccc(Cl)cc1Cl.[I-]` (centres unmarked) [compound 374], for which the “Chemotaxis Assay 0.1 µg/ml (inhibition %)” value was found to be 100%. On to `CC(=O)OCCN(CCCNC(=O)Nc1ccccc1)CCc1ccc(Cl)cc1` [Compound 244], for which, for the setting “CCR3/U937 cells (Table 3a)”, the “Chemotaxis Assay 10 µM (inhibition %)” value was determined as 81%. On the same count and under the same terms, the same measure for `O=C(O)CCCN(CCCNC(=O)Nc1ccccc1-c1ccccc1)C1CCCc2ccccc21` (centres unmarked) [Compound 85]: 19%. Take `CC[N+](CCCNC(=O)Nc1ccccc1)(CCc1ccc(Cl)cc1)Cc1ccc(C(C)(C)C)cc1.[I-]` (centres unmarked) [compound 342]: the “Chemotaxis Assay 10 µM (inhibition %)” value (CCR3/U937 cells (Table 3c)) turned out to be 97%.

Take `CC[N+](CCCNC(=O)Nc1ccccc1)(CCc1ccc(Cl)cc1)Cc1ccccc1C.[I-]` (centres unmarked) [compound 346]: the “Chemotaxis Assay 10 µM (inhibition %)” value (CCR3/U937 cells (Table 3c)) turned out to be 100%. For `O=C(O)CCCN(CCCNC(=O)Nc1ccc(Br)cc1)[C@@H]1CCc2ccccc21` [Compound 179, 4-[[3-(4-Bromophenylureido)propyl][(1R)-1-indanyl]amino]butanoic acid], at 10 µM the inhibition (CCR3/U937 cells (Table 3a)) was 100%. Take `CCC(CC)C[N+](CC)(CCCNC(=O)Nc1ccccc1)CCc1cccc(F)c1.[I-]` (centres unmarked) [compound 431]: the “Chemotaxis Assay 0.1 µg/ml (inhibition %)” value stood at 96%. Consider `COC(=O)CCCN(CCCNC(=O)Nc1ccc(Br)cc1)Cc1ccccc1` [Compound 37], for which, for the setting “CCR3/U937 cells (Table 3a)”, the “Chemotaxis Assay 10 µM (inhibition %)” value is given as 100%.

As to `O=C(NCCCN(CCCO)CCc1ccc(Cl)cc1)Nc1ccccc1` [Compound 219], the “Chemotaxis Assay 10 µM (inhibition %)” value (CCR3/U937 cells (Table 3a)) was determined as 86%. Take `CCN(CCCNC(=O)Nc1ccccc1OC)CCc1ccc(Cl)cc1` [Compound 9]: where the note is “CCR3/U937 cells (Table 3a)”, at 10 µM the inhibition was 100%. For the molecule `COC(=O)CCCCN(CCCNC(=O)Nc1ccc(Br)cc1)C1CCCc2ccccc21` (centres unmarked) [Compound 213], the “Chemotaxis Assay 10 µM (inhibition %)” value (CCR3/U937 cells (Table 3a)) was found to be 92%. Still for that read-out and setting: the same measure for `COC(=O)CCCN(CCCNC(=O)Nc1ccc(Br)cc1)C1CCc2ccccc21` (centres unmarked) [Compound 172, Methyl 4-[[3-(4-bromophenylureido)propyl](1-indanyl)amino]burylate]: 100%. In turn, `CCCN(CCCNC(=O)Nc1ccccc1)CCc1ccc(Cl)cc1` [Compound 10, N-Phenylcarbamoyl-N'-[2-(4-chlorophenyl)ethyl]-N'-propyl-1,3-diaminopropane] registered an inhibition at 10 µM (CCR3/U937 cells (Table 3a)) of 99%. On to `CC(C)CN(CCCNC(=O)Nc1ccccc1)CCc1ccc(Cl)cc1` [Compound 239], for which the “Chemotaxis Assay 10 µM (inhibition %)” value (CCR3/U937 cells (Table 3a)) is on record as 100%.

Take `CC[N+](CCCNC(=O)Nc1ccc(Br)cc1)(CCCC(=O)OC)C(C)c1ccccc1.[I-]` (centres unmarked) [compound 313]: under “CCR3/U937 cells (Table 3c)”, the “Chemotaxis Assay 10 µM (inhibition %)” value stood at 86%. As to `CCOC(=O)c1cccc(NC(=O)NCCCN(CCCC(=O)O)C2CCCc3ccccc32)c1` (centres unmarked) [Compound 236], under “CCR3/U937 cells (Table 3a)”, the “Chemotaxis Assay 10 µM (inhibition %)” value is 97%. For `CCN(CCCNC(=O)Nc1ccccc1)C1CCc2ccccc21` (centres unmarked) [Compound 234], the “Chemotaxis Assay 10 µM (inhibition %)” value (CCR3/U937 cells (Table 3a)) stood at 89%. Same read-out and setting: the same measure for `COC(=O)CCCN(CCCNC(=O)Nc1ccc(Br)cc1)CCc1ccccc1` [Compound 42]: 96%. `CN(CCCNC(=O)Nc1ccccc1)CCc1ccc(Cl)cc1` [Compound 27] had an inhibition at 10 µM (CCR3/U937 cells (Table 3a)) of 97%. On to `CC[N+](CCCO)(CCCNC(=O)Nc1ccccc1)CCc1ccc(Cl)cc1.[I-]` (centres unmarked) [Compound 299], for which the “Chemotaxis Assay 10 µM (inhibition %)” value (CCR3/U937 cells (Table 3c)) is recorded as 100%. As for `COC(=O)CCCN(CCCNC(=O)Nc1ccc(Br)cc1)[C@H](C)c1ccccc1` [Compound 30, Methyl 4-[[3-(4-bromophenylureido)propyl][(1R)-1-phenylethyl]-amino]butylate], under “CCR3/U937 cells (Table 3a)”, the “Chemotaxis Assay 10 µM (inhibition %)” value is 100%. Take `CC[N+](CCCNC(=O)Nc1ccccc1)(CCc1ccc(Cl)cc1)Cc1ccc(OCc2ccccc2)c(OCc2ccccc2)c1.[I-]` (centres unmarked) [compound 350]: the “Chemotaxis Assay 10 µM (inhibition %)” value (CCR3/U937 cells (Table 3c)) was 59%. Regarding `CCN(CCCNC(=O)Nc1ccccc1)CCc1ccccc1Cl` [Compound 232], the “Chemotaxis Assay 10 µM (inhibition %)” value (CCR3/U937 cells (Table 3a)) came to 100%. In the case of `NC(=O)CN(CCCNC(=O)Nc1ccccc1)CCc1ccc(Cl)cc1` [Compound 220], the “Chemotaxis Assay 10 µM (inhibition %)” value (CCR3/U937 cells (Table 3a)) is on record as 77%. On the same count and under the same terms, the same measure for `CCN(CCCNC(=O)Nc1ccccc1)CCc1cccc(Cl)c1` [Compound 233]: 100%.

In the case of `CC[N+](CCCNC(=O)Nc1ccccc1)(CCc1ccc(Cl)cc1)CC(C)C.[I-]` (centres unmarked) [compound 318], the “Chemotaxis Assay 10 µM (inhibition %)” value (CCR3/U937 cells (Table 3c)) stood at 100%.

Take `CC[N+](CCF)(CCCNC(=O)Nc1ccccc1)CCc1ccc(Cl)c(Cl)c1.[I-]` (centres unmarked) [compound 434]: the “Chemotaxis Assay 0.1 µg/ml (inhibition %)” value was found to be 100%. Take `COCCN(CCCNC(=O)Nc1ccccc1)CCc1ccc(Cl)cc1` [Compound 275]: for the setting “CCR3/U937 cells (Table 3a)”, the “Chemotaxis Assay 10 µM (inhibition %)” value is 100%. Same read-out and setting: the same measure for `CCN(CCCNC(=O)Nc1ccccc1)CCc1ccc(C)cc1` [Compound 231]: 90%. The same measure, in the same setting: the same measure for `CC(C)(c1ccccc1)N(CCCNC(=O)Nc1ccccc1Br)CCCC(=O)O` [Compound 195]: 100%. For `C[C@H](c1ccc(Br)cc1)N(CCCNC(=O)Nc1ccc(Br)cc1)CCCC(=O)O` [Compound 258, 4-[[3-(4-Bromophenylureido)propyl] [(1R)-1-(4-bromophenyl)ethyl]amino]butanoic acid], the inhibition at 10 µM (CCR3/U937 cells (Table 3a)) was determined as 100%. Consider `O=C(O)CCCN(CCCNC(=O)Nc1ccc(Br)cc1)C1c2ccccc2CC1O` (centres unmarked) [Compound 273], for which, where the note is “CCR3/U937 cells (Table 3a)”, the “Chemotaxis Assay 10 µM (inhibition %)” value is given as 88%. The same measure, in the same setting: the same measure for `O=C(NCCCN(CCc1cccc(Cl)c1)Cc1ccccc1)Nc1ccccc1` [Compound 280]: 60%. With `CCC(CC)C[N+](CC)(CCCNC(=O)Nc1ccccc1)CCc1ccc(Cl)cc1.[I-]` (centres unmarked) [compound 427], the “Chemotaxis Assay 0.1 µg/ml (inhibition %)” value amounted to 67%.

With `CC[N+](CCCNC(=O)Nc1ccccc1)(CCc1ccc(Cl)cc1Cl)CC(N)=O.[I-]` (centres unmarked) [compound 409], the “Chemotaxis Assay 0.1 µg/ml (inhibition %)” value is given as 53%. On to `NC(=O)CCN(CCCNC(=O)Nc1ccccc1)CCc1ccc(Cl)cc1` [Compound 243], for which the “Chemotaxis Assay 10 µM (inhibition %)” value (CCR3/U937 cells (Table 3a)) is listed as 84%. The same measure, in the same setting: the same measure for `O=C(O)CN(CCCNC(=O)Nc1ccc(Br)cc1)C1CCCc2ccccc21` (centres unmarked) [Compound 186]: 69%. As to `CC[N+](CCCNC(=O)Nc1ccccc1)(CCc1ccc(Cl)cc1)Cc1ccc(C#N)cc1.[I-]` (centres unmarked) [compound 345], the “Chemotaxis Assay 10 µM (inhibition %)” value (CCR3/U937 cells (Table 3c)) is listed as 100%.

Turning to `CC[N+](CC)(CCCNC(=O)Nc1ccccc1)CCc1ccccc1Cl.[I-]` [Compound 308], the “Chemotaxis Assay 10 µM (inhibition %)” value (CCR3/U937 cells (Table 3c)) came out at 100%.

In the case of `CC[N+](CCCNC(=O)Nc1ccc(OC)cc1)(CCOCCOC)CCc1cccc(F)c1.[I-]` (centres unmarked) [compound 439], the “Chemotaxis Assay 0.1 µg/ml (inhibition %)” value turned out to be 51%.
